Here are results for 3 compounds from patent US7181271B2, “Synergism of photodynamic and electropermeation effect on cell vitality as a novel cytotoxic agent” (Genetronics, Inc., priority 2003, dated 2007).

Experiment [1] relates to U937 cells. The experiment is described as follows: Cell viability by trypan blue exclusion after electroporation (250 V, 400 F) and 14 min irradiation. Format: cell-based. The settings on record: for Total dead cells for exp. / Dead cells by pulse / Dead cells by light for control: 1 × 10^−5 M agent, 18–22 C; for Total dead cells for exp. / Dead cells by pulse / Dead cells by light for control / Final dead cells: exp/control: U937 cells; for Total dead cells for exp.: pulse 250 V plus 14 min irradiation; for Dead cells by pulse: single pulse 250 V (1.2 kV/cm), 400 F, 11–12 ms, 14 min irradiation; for Dead cells by light for control: unpulsed control, irradiated 14 min; for Final dead cells: exp/control: ratio of total dead cells (pulse + light) to dead cells by light only, 1 × 10^−5 M.

For experiment [2] the following is noted: type 1 photoreaction; cited from earlier work.

In the case of `C=CC1=C(C)c2cc3[nH]c(cc4nc(cc5[nH]c(cc1n2)c(C)c5CCC(=O)O)C(CCC(=O)O)=C4C)c(C)c3C=C` [PP, protoporphyrin], in experiment [1], the “Total dead cells for exp.” value amounted to 91.6%, the “Dead cells by pulse” value is listed as 65.8%, the “Dead cells by light for control” value was determined as 18.8% and the “Final dead cells: exp/control” value is given as 4.9.

On to `COc1cccc2c1C(=O)c1c(O)c3c(c(O)c1C2=O)C[C@@](O)(C(C)=O)C[C@@H]3O[C@H]1C[C@H](N)[C@H](O)[C@H](C)O1` [DAM, daunomycin], for which, in experiment [1], the “Total dead cells for exp.” value amounted to 87.5%, the “Dead cells by pulse” value amounted to 63.4%, the “Dead cells by light for control” value turned out to be 17.6% and the “Final dead cells: exp/control” value was 4.9. Besides, in experiment [1] (unpulsed U937 cells, without irradiation), the “penetration and dark effect (without irradiation)” value is “increases with time”.

Consider `CN(C)c1ccc2cc3ccc(=[N+](C)C)cc-3sc2c1.[Cl-]` [TP, thiopyronin], for which, in experiment [1], the “Total dead cells for exp.” value was determined as 98.6%, the “Dead cells by pulse” value came out at 80.3%, the “Dead cells by light for control” value came out at 20.1% and the “Final dead cells: exp/control” value came to 4.9. Moreover, the “rate constant of oxidizing guanosine” value in experiment [2] is 3.8e+06 M⁻¹ s⁻¹.
